Results on four compounds are retold here after PMC8026785, “The pharmacokinetics of [^18F]UCB-H revisited in the healthy non-human primate brain” (EJNMMI Research, 2021).

Structures are written as SMILES.

Series [1] addresses T1, SV2A (Macaca fascicularis, UniProt Q4R4X3).
T1 construct: The current study evaluates [^18F]UCB-H pharmacokinetics in healthy NHPs; from tissue; host or cells: brain of living healthy cynomolgus monkeys (in vivo PET)
Put plainly: Displacement PET studies of [^18F]UCB-H. Format: in vivo, cynomolgus monkeys (Macaca fascicularis). The procedure:
All four non-human primates (NHP) underwent a 2-h (2 h) test and retest PET scan; two NHP underwent an additional 4-h (4 h) retest PET scan. Three NHP underwent one 4-h (4 h) displacement PET scan. Arterial blood sampling was performed during test and retest scans with PET imaging spaced by at least 3 weeks between each scan. To this end, the femoral artery opposite to the saphenous vein used for radioligand injection was cannulated. For the 2-h (2 h) scans, we collected in total 28 blood samples of 1 mL: 16 samples during the first 5 min followed by […] every 5 min and […] every 10 min. For the 4 h scans, we collected an additional 6 samples every 20 min during the last two hours (34 samples in total). Larger samples (2 – 3 mL) were collected at 5, 15, 30, 60, 90, 120 min (2 h) and at 180, 240 min (4 h) for metabolite analysis. Displacement of [^18F]UCB-H was done by intravenous (IV) administration 90 min after [^18F]UCB-H injection of a bolus of 30 mg/kg LEV, or of 80 µg/kg (≈250 nmol/kg) or 5 mg/kg (≈15 µmol/kg) of cold [^19F]-UCB-H. Full experimental design of all NHP is outlined in Additional file 1: Table 1.
Solvents and LEV (C8H14N2O2; MM 170.21 g/mol) were obtained at Sigma-Aldrich® (France), and [^19F]-UCB-H (C16H12F4N2O; MM 324.28 g/mol) was synthesised as previously described. Injectable solutions of [^19F]-UCB-H for displacement studies were prepared with a mixture of Tetrahydrofuran (THF), Médialipide® and glucose at 2.5% as previously described. LEV was dissolved in a glucose solution of 2.5% to reach a concentration of 90 mg/mL.
PET image analysis was performed using PMOD software version 3.8 (PMOD Technologies Ltd., Zurich, Suisse). After individual co-registration of PET-MR images, a cynomolgus atlas published by Ballanger and coworkers was normalized to PET images to extract time activity curves in different brain regions. Volumes of interest (VOI) were cerebral white matter (16.7 cm^3), striatum (0.24 cm^3), thalamus (0.89 cm^3), cerebellum (3.83 cm^3), frontal—(2.50 cm^3), parietal—(5.35 cm^3), and temporal (8.22 cm^3) cortex, and whole brain (72.2 cm^3) as a composite region of all regions in the atlas. [^18F]UCB-H pharmacokinetics were evaluated by analyzing the time activity curves of the test- and retest scans using 1- and 2-tissue compartment models (unconstrained and constrained with global K1/k2 coupled fit across all regions, further referred to as 2TCM and 2TCM-c), and Logan graphical analysis with a fixed t* at 60 min [33] using the arterial plasma input function corrected for radio-metabolites to derive the volume of distribution in each region. Percentage standard error (%SE) was estimated from the theoretical parameter covariance matrix. Only reliable estimates (%SE less than 25%) were included in the current analyses. For the three drug studies, percent displacement of the total activity in the whole brain was estimated relative to an average baseline constructed from the two 4 h baseline studies. Briefly, Standardized Uptake Value (SUV) time activity curves (TACs) were calculated for the two baseline and the three displacement studies. Then, each curve was normalized to the SUV at t = 90 min, corresponding to the timeframe immediately before the administration of the drugs in the displacement studies. Baseline curves were averaged and the percent displacement of total activity was calculated as (baseline-displacement)/baseline at a given time post drug administration (see “Results”).

The subject of series [2] is SV2A. Also on record: method as in PMID 30084043, PMID 31728839. The note with it: cited from earlier work.
The target in series [3] is SV2A. Details: method as in PMID 31728839. The note with it: human brain; read-out: in vitro Ki; cited from earlier work.
The target in series [4] is SV2A. Details: method as in PMID 26848175. The note with it: NHP; read-out: in vivo KD; cited from earlier work.

T1 sequence (Q4R4X3 whole entry): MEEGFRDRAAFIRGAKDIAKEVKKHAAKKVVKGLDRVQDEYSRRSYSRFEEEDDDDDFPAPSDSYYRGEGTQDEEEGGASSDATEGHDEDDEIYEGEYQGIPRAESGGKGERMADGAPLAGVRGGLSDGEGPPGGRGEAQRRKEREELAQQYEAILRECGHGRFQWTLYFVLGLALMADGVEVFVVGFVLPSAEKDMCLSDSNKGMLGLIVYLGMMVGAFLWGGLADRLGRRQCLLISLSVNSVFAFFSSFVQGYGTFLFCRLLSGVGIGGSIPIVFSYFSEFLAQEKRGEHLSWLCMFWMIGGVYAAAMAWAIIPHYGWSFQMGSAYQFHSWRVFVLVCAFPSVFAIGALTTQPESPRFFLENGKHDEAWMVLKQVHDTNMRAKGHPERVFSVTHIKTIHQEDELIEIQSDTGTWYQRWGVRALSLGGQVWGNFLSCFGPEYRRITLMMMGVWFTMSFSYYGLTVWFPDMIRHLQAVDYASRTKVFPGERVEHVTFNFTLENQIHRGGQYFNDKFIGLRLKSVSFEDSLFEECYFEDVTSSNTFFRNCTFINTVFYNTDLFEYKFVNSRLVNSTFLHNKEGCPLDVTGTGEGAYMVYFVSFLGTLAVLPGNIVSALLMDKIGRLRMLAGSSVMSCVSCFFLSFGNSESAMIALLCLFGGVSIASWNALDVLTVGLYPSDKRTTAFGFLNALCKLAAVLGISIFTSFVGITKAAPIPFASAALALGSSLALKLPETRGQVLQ

Regarding `CC[C@@H](C(N)=O)N1CCCC1=O` [LEV, levetiracetam, reference compound], the “displacement of [^18F]UCB-H total uptake” value at SV2A [1] (30 mg/kg i.v. at 90 min, estimated 150 min (2.5 h) after injection) was ~ 40%. For the same compound, the receptor occupancy at 30 mg/kg on SV2A [1] (cynomolgus monkey, iv, read-out: SV2A occupancy) lay in the range of 75 to 80%.
Regarding `Cc1cnccc1CN1C[C@@H](c2cc(F)cc([18F])c2)CC1=O` [[^18F]MNI-1126], the “affinity” value in the series on SV2A [2] is “high affinity”.
Consider `Cc1cnccc1CN1CC(c2cc(F)cc([18F])c2)CC1=O` (stereo not drawn) [[^18F]MNI-1128], for which the “affinity” value in the series on SV2A [2] is listed as “low affinity”.
`O=C1CC(c2cc(F)c(F)c(F)c2)CN1Cc1ccncc1F` (stereo not drawn) [[^19F]UCB-H]: the inhibition constant Ki (commonly a dissociation constant, usually derived from enzyme kinetics or from competition with a known ligand) at SV2A [3] is 9 nM. For the same compound, the dissociation constant (Kd) (usually the constant that tells how readily two partners part at equilibrium) at SV2A [4] was 30 nM. Further, the “displacement of [^18F]UCB-H total uptake” value on SV2A [1] (5 mg/kg i.v. at 90 min, estimated 35 min after injection of cold compound) is 50%. Further, the SV2A occupancy expected at SV2A [1] (5 mg/kg, KD 30 nM) is on record as greater than 98%. The maximum free concentration in brain at SV2A [1] (after 5.0 mg/kg, based on brain uptake curves and fND ~6%) is roughly 2.5 µM.
